Test results reported in US7531555B2, “Compositions and methods for selective inhibition of nicotine acetylcholine receptors” (University of Florida Research Foundation, Inc., priority 2003, dated 2009).
Values joined by “and” are separate entries in the source; they are usually repeats but may differ in a detail not shown here. Equal values may be shown once. Read-outs that look alike come from different tables or passages of the source.

Key:
Type in all cases: cell-based
Rat α3β4β3 [1] = target: T1, Rat α3β4β3 (Rattus norvegicus, UniProt P04757+P12391+P12392); assay: Voltage clamp of Xenopus oocytes expressing α3β4β3 nAChR; parameters: expressed in transfected cells; host or cells: Xenopus laevis oocytes injected with subunit cRNAs; clones from Dr. Jim Boulter (UCLA)
T1 sequence (P04757 26-499): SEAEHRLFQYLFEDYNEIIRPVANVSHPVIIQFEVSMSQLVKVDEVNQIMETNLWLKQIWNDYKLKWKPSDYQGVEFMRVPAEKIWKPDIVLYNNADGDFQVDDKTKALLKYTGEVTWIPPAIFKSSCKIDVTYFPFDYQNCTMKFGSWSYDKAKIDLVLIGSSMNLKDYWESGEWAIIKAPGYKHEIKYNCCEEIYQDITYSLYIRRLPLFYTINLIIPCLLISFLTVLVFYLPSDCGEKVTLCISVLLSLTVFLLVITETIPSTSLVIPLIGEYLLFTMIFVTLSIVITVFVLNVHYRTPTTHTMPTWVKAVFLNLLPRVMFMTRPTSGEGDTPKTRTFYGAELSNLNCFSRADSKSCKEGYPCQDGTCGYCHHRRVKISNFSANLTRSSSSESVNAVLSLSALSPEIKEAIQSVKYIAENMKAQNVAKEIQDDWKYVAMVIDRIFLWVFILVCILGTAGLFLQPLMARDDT
T1 sequence (P12392 21-495): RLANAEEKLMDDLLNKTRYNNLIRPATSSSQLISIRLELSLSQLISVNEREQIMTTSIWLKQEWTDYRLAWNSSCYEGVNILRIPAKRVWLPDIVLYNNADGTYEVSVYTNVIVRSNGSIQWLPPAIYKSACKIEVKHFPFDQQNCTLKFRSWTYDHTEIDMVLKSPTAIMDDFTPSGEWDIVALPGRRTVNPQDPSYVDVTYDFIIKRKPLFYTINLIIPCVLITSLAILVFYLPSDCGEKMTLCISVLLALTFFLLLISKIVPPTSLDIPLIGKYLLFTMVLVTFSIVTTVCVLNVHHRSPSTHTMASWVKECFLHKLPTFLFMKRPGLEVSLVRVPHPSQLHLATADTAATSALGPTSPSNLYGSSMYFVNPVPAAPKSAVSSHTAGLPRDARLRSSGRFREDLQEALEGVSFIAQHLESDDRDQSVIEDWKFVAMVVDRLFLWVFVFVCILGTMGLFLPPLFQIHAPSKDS
T1 sequence (P12391 31-464): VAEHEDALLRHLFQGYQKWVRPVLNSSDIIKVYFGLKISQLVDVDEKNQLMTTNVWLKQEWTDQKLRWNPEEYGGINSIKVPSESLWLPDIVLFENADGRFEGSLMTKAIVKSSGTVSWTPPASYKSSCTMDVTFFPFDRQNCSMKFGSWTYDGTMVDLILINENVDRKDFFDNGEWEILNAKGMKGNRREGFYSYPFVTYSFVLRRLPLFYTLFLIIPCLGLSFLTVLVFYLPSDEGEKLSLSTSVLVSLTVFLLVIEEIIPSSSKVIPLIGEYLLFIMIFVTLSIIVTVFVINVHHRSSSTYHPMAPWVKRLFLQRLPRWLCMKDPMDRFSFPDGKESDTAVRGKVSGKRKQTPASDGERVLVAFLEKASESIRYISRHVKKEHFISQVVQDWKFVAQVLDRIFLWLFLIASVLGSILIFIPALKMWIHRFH
Description: (§1) Mature (>9 cm) female Xenopus laevis African frogs (NASCO, Ft. Atkinson, Wis.) were used as a source of oocytes. Prior to surgery, frogs were anesthetized by placing the animal in a 1.5 g/l solution of MS222 (3-aminobenzoic acid ethyl ester) for 30 minutes. Oocytes were removed from an incision made in the abdomen.
(§2) In order to remove the follicular cell layer, harvested oocytes were treated with 1.25 mg/ml collagenase from Worthington Biochemical Corporation (Freehold, N.J.) for 2 hours at room temperature in calcium-free Barth's solution (88 mM NaCl, 10 mM HEPES pH 7.6, 0.33 mM MgSO4, 0.1 mg/ml gentamicin sulfate). Subsequently, stage 5 oocytes were isolated and injected with 50 nl (5-20 ng) each of the appropriate subunit cRNAs. Recordings were made 2 to 15 days after injection.
(§3) Rat neuronal nAChR clones and mouse muscle nAChR cDNA clones were used. The wild-type clones were obtained from Dr. Jim Boulter (UCLA). The rat α6/3 (Dowell et al. J Neurosci, 2003, 23:8445-8452) clone was obtained from Michael McIntosh (University of Utah) and expressed in Xenopus oocytes in combinations with rat β2 and β3. […] The TM2 domain is understood to line the pore of the channel, with alpha helix structure. The 7′ position may actually be directed away from the actual pore lining, but this residue is highly conserved in all of the nAChR. It is valine in all of them except α9 (isoleucine) and β1, where it is alanine. The TM2 mutation in the α6/3 chimera was corrected by using QuickChange (Stratagene) according to their protocols. The corrected α6/3 chimera sequence was confirmed by restriction diagnostics and by automated fluorescent sequencing (University of Florida core facility). The corrected clone was expressed as above in Xenopus oocytes with β2 and β3 and compared to the wild-type α3 co-expressed with β2 and β3.
(§4) After linearization and purification of cloned cDNAs, RNA transcripts were prepared in vitro using the appropriate mMessage mMachine kit from Ambion Inc. (Austin, Tex.).
Electrophysiology. The majority of experiments were conducted using OpusXpress 6000A (Axon Instruments, Union City Calif.). OpusXpress is an integrated system that provides automated impalement and voltage clamp of up to eight oocytes in parallel. Cells were automatically perfused with bath solution, and agonist solutions were delivered from a 96-well plate. Both the voltage and current electrodes were filled with 3 M KCl. The agonist solutions were applied via disposable tips, which eliminated any possibility of cross-contamination. Drug applications alternated between ACh controls and experimental applications. Flow rates were set at 2 ml/min for experiments with α7 receptors and 4 ml/min for other subtypes. Cells were voltage-clamped at a holding potential of −60 mV. Data were collected at 50 Hz and filtered at 20 Hz. Agonist applications were 12 seconds in duration followed by 181-second washout periods for α7 receptors and 8 seconds with 241-second wash periods for other subtypes. For some experiments, particularly under conditions where residual inhibition precluded making repeated measurements from single cells (see below), manual oocyte recordings were made as previously described (Papke and Papke Br J of Pharmacol, 2002, 137:49-61). In brief, Warner Instruments (Hamden, Conn.) OC-725C oocyte amplifiers were used, and data were acquired with a minidigi or digidata 1200A with pClamp9 software (Axon Instruments). Sampling rates were between 10 and 20 Hz and the data were filtered at 6 Hz. […]

Rat α4β2 = target: T2, Rat α4β2 (Rattus norvegicus, UniProt P09483+P12390); assay: Voltage clamp of Xenopus oocytes expressing α4β2 nAChR
T2 construct: expressed in transfected cells; host or cells: Xenopus laevis oocytes injected with subunit cRNAs; clones from Dr. Jim Boulter (UCLA)
T2 sequence (P09483 31-630): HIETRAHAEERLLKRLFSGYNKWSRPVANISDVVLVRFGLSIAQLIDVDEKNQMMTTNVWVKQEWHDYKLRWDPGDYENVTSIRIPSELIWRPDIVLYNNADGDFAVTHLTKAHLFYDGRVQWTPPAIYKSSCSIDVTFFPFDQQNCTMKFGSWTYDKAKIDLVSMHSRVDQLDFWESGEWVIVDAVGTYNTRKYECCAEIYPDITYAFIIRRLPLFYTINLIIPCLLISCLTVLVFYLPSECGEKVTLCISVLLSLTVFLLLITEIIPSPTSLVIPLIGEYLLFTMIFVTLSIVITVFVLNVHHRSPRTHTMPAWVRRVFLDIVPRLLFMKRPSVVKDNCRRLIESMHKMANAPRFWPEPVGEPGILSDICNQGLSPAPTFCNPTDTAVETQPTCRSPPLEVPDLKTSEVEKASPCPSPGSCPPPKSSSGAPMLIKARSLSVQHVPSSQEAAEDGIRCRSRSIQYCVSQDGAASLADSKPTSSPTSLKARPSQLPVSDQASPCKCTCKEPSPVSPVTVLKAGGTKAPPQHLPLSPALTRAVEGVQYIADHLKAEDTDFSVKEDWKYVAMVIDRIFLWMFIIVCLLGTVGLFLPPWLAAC
T2 sequence (P12390 25-500): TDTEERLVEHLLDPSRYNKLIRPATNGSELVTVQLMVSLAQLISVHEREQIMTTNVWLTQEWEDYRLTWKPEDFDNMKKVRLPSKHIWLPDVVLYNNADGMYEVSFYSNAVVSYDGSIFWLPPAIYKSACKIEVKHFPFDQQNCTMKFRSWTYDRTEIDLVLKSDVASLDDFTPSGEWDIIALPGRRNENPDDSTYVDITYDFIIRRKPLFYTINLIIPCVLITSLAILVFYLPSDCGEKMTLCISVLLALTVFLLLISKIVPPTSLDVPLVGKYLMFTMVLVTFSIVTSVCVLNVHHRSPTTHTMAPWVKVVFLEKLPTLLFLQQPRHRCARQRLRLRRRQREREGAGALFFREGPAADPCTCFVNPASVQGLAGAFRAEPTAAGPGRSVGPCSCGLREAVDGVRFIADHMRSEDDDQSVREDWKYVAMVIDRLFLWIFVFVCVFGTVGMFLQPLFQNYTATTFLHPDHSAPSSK
Description: as §1, §2, §3, §4
Electrophysiology. The majority of experiments were conducted using OpusXpress 6000A (Axon Instruments, Union City Calif.). OpusXpress is an integrated system that provides automated impalement and voltage clamp of up to eight oocytes in parallel. Cells were automatically perfused with bath solution, and agonist solutions were delivered from a 96-well plate. Both the voltage and current electrodes were filled with 3 M KCl. The agonist solutions were applied via disposable tips, which eliminated any possibility of cross-contamination. Drug applications alternated between ACh controls and experimental applications. Flow rates were set at 2 ml/min for experiments with α7 receptors and 4 ml/min for other subtypes. Cells were voltage-clamped at a holding potential of −60 mV. Data were collected at 50 Hz and filtered at 20 Hz. Agonist applications were 12 seconds in duration followed by 181-second washout periods for α7 receptors and 8 seconds with 241-second wash periods for other subtypes. For some experiments, particularly under conditions where residual inhibition precluded making repeated measurements from single cells (see below), manual oocyte recordings were made as previously described (Papke and Papke Br J of Pharmacol, 2002, 137:49-61). In brief, Warner Instruments (Hamden, Conn.) OC-725C oocyte amplifiers were used, and data were acquired with a minidigi or digidata 1200A with pClamp9 software (Axon Instruments). Sampling rates were between 10 and 20 Hz and the data were filtered at 6 Hz. Cells were voltage clamped at a holding potential of −50 mV.
Experimental protocols and data analysis. Each oocyte received two initial control applications of ACh, an experimental drug application (or co-application of ACh and TMPH), and then follow-up control application(s) of ACh. The control ACh concentrations for α1β1γδ, α3β4, α4β2, α3β2, α3β2α5, α3β2β3, α6/3β2β3 α6β4β3 and α7, receptors were 30 μM, 100 μM, 10 μM, 30 μM, 1 μM 100 μM 100 μM 100 μM and 300 μM, respectively. […]

Rat α3β4β3 [2] = target: T1, Rat α3β4β3; assay: Voltage clamp of Xenopus oocytes expressing α3β4β3 nAChR; parameters: Rat neuronal nAChR clones and mouse muscle nAChR cDNA clones were used; The wild-type clones were obtained from Dr. Jim Boulter (UCLA)
Description: as §1, §2
Rat neuronal nAChR clones and mouse muscle nAChR cDNA clones were used. The wild-type clones were obtained from Dr. Jim Boulter (UCLA). The rat α6/3 (Dowell et al. J Neurosci, 2003, 23:8445-8452) clone was obtained from Michael McIntosh (University of Utah) and expressed in Xenopus oocytes in combinations with rat β2 and β3. […] The TM2 domain is understood to line the pore of the channel, with alpha helix structure. […] The corrected clone was expressed as above in Xenopus oocytes with β2 and β3 and compared to the wild-type α3 co-expressed with β2 and β3. […]

Work on `CCCCCCC(=O)OC1CC(C)(C)NC(C)(C)C1` [TMPH, 2,2,6,6-tetramethylpiperidin-4-yl heptanoate] yielded an IC50 (Rat α3β4β3 [1]; decrease in net charge, 100 μM ACh co-applied with TMPH, read-out: IC50 (area)) of 1400 ± 200 nM, an IC50 (Rat α3β4β3 [1]; decrease in peak current amplitude, 100 μM ACh co-applied with TMPH, read-out: IC50 (peak)) of 1900 ± 200 nM and an IC50 (Rat α3β4β3 [1]; inhibition still present after 5-minute wash, read-out: IC50 (recovery), 2 site model, site with 85% of the fit) of 30000 nM. For the same molecule, the “IC50 net charge/IC50 peak” value (Rat α3β4β3 [1]; ratio) was 0.74, the “IC50 recovery/IC50 net charge, 2-site model, second value” (Rat α3β4β3 [1]; ratio, recovery site of IC50 30 μM) was 21 and the inhibition at 0.1 µM (Rat α4β2; 100 nM TMPH, after 3 applications at 10-minute intervals, read-out: inhibition after repeated co-applications of ACh with TMPH) was 90%. The “use-independent inhibition, TMPH applied alone” value (Rat α4β2; 1 μM TMPH alone versus co-applied with ACh) was “almost as effective as when co-applied with ACh”, the IC50 (Rat α4β2; decrease in net charge, 10 μM ACh co-applied with TMPH, single co-application, read-out: IC50 (area)) was 100 nM and 110 nM and the IC50 (Rat α4β2; decrease in peak current amplitude, 10 μM ACh co-applied with TMPH, read-out: IC50 (peak)) was 1400 nM. For the same molecule, the reversibility of inhibition (Rat α4β2; following a 5-minute wash) was “virtually no recovery”, the IC50 (Rat α4β2; from shift of the net charge inhibition curve so that 100 nM is the IC90, read-out: equilibrium IC50) was roughly 10 nM and the IC50 (Rat α4β2; inhibition still present after 5-minute wash, read-out: IC50 (recovery)) was 250 ± 80 nM. For the same molecule, the “IC50 net charge/IC50 peak” value (Rat α4β2; ratio) was 0.08, the “IC50 recovery/IC50 net charge” value (Rat α4β2; ratio) was 2.3 and the IC50 (Rat α3β4β3 [2]; inhibition still present after 5-minute wash, read-out: IC50 (recovery), 2 site model, site with approximately 15% of the fit) was 1000 nM. For the same molecule, the “IC50 recovery/IC50 net charge, 2-site model, first value” (Rat α3β4β3 [2]; ratio, recovery site of IC50 1.0 μM) was 0.7.
